One test deals with Canine platelets. As to the kind of experiment: Platelet cell viability assay (platelet-rich plasma, Cell Titer Glo). Type of test: cell-based. To be noted: Canis lupus familiaris, 5 h, isolated canine platelets ex vivo, five hours at 37° C. As for the experimental part: After the incubation, platelets were equilibrated to room temperature for 20 minutes and then an equal volume of Cell Titer Glo reagent (Promega Corporation) was added. Samples were mixed for two minutes and then allowed to equilibrate for an additional 10 minutes at room temperature. The luminescence generated from the samples was quantitated using an LJL Analyst plate reader.
The effect of compounds on platelet survival can be directly evaluated ex vivo by examining the viability of isolated canine platelets in the presence of various concentrations of compound.

Another test addresses GST-Bcl-XL (Homo sapiens, UniProt Q07817). As to the kind of experiment: TR-FRET binding assay, GST-Bcl-XL with F-Bak peptide probe. The conditions noted are these: TR-FRET Binding Affinity, GST-Bcl-XL, F-Bak peptide probe. In outline:
(§1)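 Displacement of a fluorescein-labelled Bak peptide from the GST-tagged protein was followed by time-resolved FRET with a terbium anti-GST donor after 3 h incubation at room temperature. Inhibition constants were calculated with Wang's equation.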

In the next test the test system is FL5.12/Bcl-2 cells. Kind of test: FL5.12/Bcl-2 cell viability assay under IL-3 withdrawal (CellTitre Glo). The format is cell-based, murine. To be noted: Mus musculus, IL-3 withdrawn 48 hrs, then 24 hrs with compound. In outline: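 Cells (1×10^6/ml) are washed, resuspended in medium lacking WEHI-3B conditioned medium as IL-3 source, and held 48 hrs. Compounds are then added at a range of concentrations for 24 hrs, after which CellTitre Glo reports viability.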

A further test has as its target GST-Bcl-2 (Homo sapiens, UniProt P10415). Kind of test: TR-FRET binding assay, GST-Bcl-2 with F-Bak peptide probe. The conditions noted are these: TR-FRET Binding Affinity, GST-Bcl-2, F-Bak peptide probe. Put shortly: as §1

Sequence of GST-Bcl-XL (Q07817 whole entry): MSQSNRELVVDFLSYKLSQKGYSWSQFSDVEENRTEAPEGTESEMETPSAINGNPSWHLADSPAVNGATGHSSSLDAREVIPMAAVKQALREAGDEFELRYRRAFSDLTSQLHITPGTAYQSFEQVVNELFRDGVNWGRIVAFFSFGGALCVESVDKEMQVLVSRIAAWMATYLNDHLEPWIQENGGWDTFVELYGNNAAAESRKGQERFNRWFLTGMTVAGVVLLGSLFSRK
Sequence of GST-Bcl-2 (P10415 whole entry): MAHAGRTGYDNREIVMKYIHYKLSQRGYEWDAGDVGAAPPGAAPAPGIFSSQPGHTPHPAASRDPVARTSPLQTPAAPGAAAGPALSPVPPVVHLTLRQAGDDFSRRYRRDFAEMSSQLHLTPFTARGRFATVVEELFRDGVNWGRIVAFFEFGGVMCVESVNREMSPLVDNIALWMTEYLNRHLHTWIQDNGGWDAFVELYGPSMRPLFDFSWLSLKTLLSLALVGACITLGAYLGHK

Consider `CC1(C)CCC(CN2CCN(c3ccc(C(=O)NS(=O)(=O)c4ccc(NCCCN5CCOCC5)c([N+](=O)[O-])c4)c(Oc4cccc5[nH]ccc45)c3)CC2)=C(c2ccc(Cl)cc2)C1` [Example 55, 4-(4-{[2-(4-chlorophenyl)-4,4-dimethylcyclohex-1-en-1-yl]methyl}piperazin-1-yl)-2-(1H-indol-4-yloxy)-N-({4-[(3-morpholin-4-ylpropyl)amino]-3-nitrophenyl}sulfonyl)benzamide], for which the EC50 amounted to 36000 nM with Canine platelets and 22 nM in the test on FL5.12/Bcl-2 cells. The values for the Ki at GST-Bcl-XL and at GST-Bcl-2 were 24.9 nM and 0.196 nM, respectively.

For `CN(C)CCCNc1ccc(S(=O)(=O)NC(=O)c2ccc(N3CCN(CC4=C(c5ccc(Cl)cc5)CCC(C)(C)C4)CC3)cc2Oc2cccc3[nH]ccc23)cc1[N+](=O)[O-]` [Example 56, 4-(4-{[2-(4-chlorophenyl)-5,5-dimethylcyclohex-1-en-1-yl]methyl}piperazin-1-yl)-N-[(4-{[3-(dimethylamino)propyl]amino}-3-nitrophenyl)sulfonyl]-2-(1H-indol-4-yloxy)benzamide], the EC50 was determined as 27000 nM with Canine platelets and 49 nM in the test with FL5.12/Bcl-2 cells. Also, the Ki on GST-Bcl-XL came out at 12.9 nM; at GST-Bcl-2 it was 0.268 nM.

Take `CN(C)CCCNc1ccc(S(=O)(=O)NC(=O)c2ccc(N3CCN(CC4=C(c5ccc(Cl)cc5)CC(C)(C)CC4)CC3)cc2Oc2cccc3[nH]ccc23)cc1[N+](=O)[O-]` [Example 57, 4-(4-{[2-(4-chlorophenyl)-4,4-dimethylcyclohex-1-en-1-yl]methyl}piperazin-1-yl)-N-[(4-{[3-(dimethylamino)propyl]amino}-3-nitrophenyl)sulfonyl]-2-(1H-indol-4-yloxy)benzamide]: the EC50 in the test on Canine platelets is 16800 nM; in the test on FL5.12/Bcl-2 cells, 16 nM. Further, the Ki at GST-Bcl-XL is 4.67 nM; at GST-Bcl-2 it was 0.068 nM.

Turning to `COc1ccc(C2=C(CN3CCN(c4ccc(C(=O)NS(=O)(=O)c5ccc(NCCCN6CCCC6)c([N+](=O)[O-])c5)c(Oc5cccc6[nH]ccc56)c4)CC3)CCC(C)(C)C2)cc1` [Example 68, 2-(1H-indol-4-yloxy)-4-(4-{[2-(4-methoxyphenyl)-4,4-dimethylcyclohex-1-en-1-yl]methyl}piperazin-1-yl)-N-({3-nitro-4-[(3-pyrrolidin-1-ylpropyl)amino]phenyl}sulfonyl)benzamide], the EC50 was above 50000 nM in the test on Canine platelets and 44 nM in the test with FL5.12/Bcl-2 cells. For the same compound, the Ki on GST-Bcl-XL was determined as 14 nM; on GST-Bcl-2, 1.23 nM.

With `CC1(C)CCC(CN2CCN(c3ccc(C(=O)NS(=O)(=O)c4ccc(NCCCN5CCCC5)c([N+](=O)[O-])c4)c(Oc4cccc5[nH]ccc45)c3)CC2)=C(c2ccc(C(F)(F)F)cc2)C1` [Example 69, 4-[4-({4,4-dimethyl-2-[4-(trifluoromethyl)phenyl]cyclohex-1-en-1-yl}methyl)piperazin-1-yl]-2-(1H-indol-4-yloxy)-N-({3-nitro-4-[(3-pyrrolidin-1-ylpropyl)amino]phenyl}sulfonyl)benzamide], the EC50 in the test on Canine platelets is above 50000 nM; in the test with FL5.12/Bcl-2 cells, 75 nM. Besides, the Ki amounted to 92.1 nM at GST-Bcl-XL and 1.25 nM at GST-Bcl-2.

`CC1(C)CCC(CN2CCN(c3ccc(C(=O)NS(=O)(=O)c4ccc(NCCCN5CCCC5)c([N+](=O)[O-])c4)c(Oc4cccc5[nH]ccc45)c3)CC2)=C(c2ccc(OC(F)(F)F)cc2)C1` [Example 70, 4-[4-({4,4-dimethyl-2-[4-(trifluoromethoxy)phenyl]cyclohex-1-en-1-yl}methyl)piperazin-1-yl]-2-(1H-indol-4-yloxy)-N-({3-nitro-4-[(3-pyrrolidin-1-ylpropyl)amino]phenyl}sulfonyl)benzamide]: the EC50 is above 50000 nM in the test on Canine platelets and 111 nM in the test on FL5.12/Bcl-2 cells. The Ki at GST-Bcl-XL came out at 74.4 nM; at GST-Bcl-2, 1.19 nM.

As to `CC1(C)CCC(CN2CCN(c3ccc(C(=O)NS(=O)(=O)c4ccc(NCCCN5CCCC5)c([N+](=O)[O-])c4)c(Oc4cccc5[nH]ccc45)c3)CC2)=C(c2cccc(C(F)(F)F)c2)C1` [Example 71, 4-[4-({4,4-dimethyl-2-[3-(trifluoromethyl)phenyl]cyclohex-1-en-1-yl}methyl)piperazin-1-yl]-2-(1H-indol-4-yloxy)-N-({3-nitro-4-[(3-pyrrolidin-1-ylpropyl)amino]phenyl}sulfonyl)benzamide], the concentration giving a half-maximal response (EC50) in the test on Canine platelets is above 50000 nM; in the test on FL5.12/Bcl-2 cells, 460 nM. Further, the Ki was above 660 nM on GST-Bcl-XL and 6.23 nM on GST-Bcl-2.

Take `CC1(C)CCC(CN2CCN(c3ccc(C(=O)NS(=O)(=O)c4ccc(NCCCN5CCCC5)c([N+](=O)[O-])c4)c(Oc4cccc5[nH]ccc45)c3)CC2)=C(c2cccc(F)c2)C1` [Example 72, 4-(4-{[2-(3-fluorophenyl)-4,4-dimethylcyclohex-1-en-1-yl]methyl}piperazin-1-yl)-2-(1H-indol-4-yloxy)-N-({3-nitro-4-[(3-pyrrolidin-1-ylpropyl)amino]phenyl}sulfonyl)benzamide]: the EC50 is above 50000 nM in the test on Canine platelets and 154 nM in the test with FL5.12/Bcl-2 cells. The values for the Ki at GST-Bcl-XL and at GST-Bcl-2 were 52.4 nM and 3.02 nM, respectively.

In the case of `CC1(C)CCC(CN2CCN(c3ccc(C(=O)NS(=O)(=O)c4ccc(NCCCN5CCCC5)c([N+](=O)[O-])c4)c(Oc4cccc5[nH]ccc45)c3)CC2)=C(c2ccc(F)cc2)C1` [Example 73, 4-(4-{[2-(4-fluorophenyl)-4,4-dimethylcyclohex-1-en-1-yl]methyl}piperazin-1-yl)-2-(1H-indol-4-yloxy)-N-({3-nitro-4-[(3-pyrrolidin-1-ylpropyl)amino]phenyl}sulfonyl)benzamide], the EC50 was 23200 nM with Canine platelets and 140 nM in the test with FL5.12/Bcl-2 cells. Moreover, the Ki on GST-Bcl-XL worked out at 16.9 nM; on GST-Bcl-2, 1.7 nM.

Consider `CN1CCC(Nc2ccc(S(=O)(=O)NC(=O)c3ccc(N4CCN(CC5=C(c6ccc(Cl)cc6)CC(C)(C)CC5)CC4)cc3Oc3ccc4[nH]ccc4c3)cc2S(=O)(=O)C(F)(F)Cl)CC1` [Example 74, N-({3-{[chloro(difluoro)methyl]sulfonyl}-4-[(1-methylpiperidin-4-yl)amino]phenyl}sulfonyl)-4-(4-{[2-(4-chlorophenyl)-4,4-dimethylcyclohex-1-en-1-yl]methyl}piperazin-1-yl)-2-(1H-indol-5-yloxy)benzamide], for which the EC50 in the test on Canine platelets is 16700 nM; in the test on FL5.12/Bcl-2 cells it was 8 nM. The Ki stood at 25.2 nM at GST-Bcl-XL and 0.02 nM on GST-Bcl-2.

Regarding `CN1CCC(Nc2ccc(S(=O)(=O)NC(=O)c3ccc(N4CCN(CC5=C(c6ccc(Cl)cc6)CCCC5)CC4)cc3Oc3ccc4[nH]ccc4c3)cc2[N+](=O)[O-])CC1` [Example 75, 4-(4-{[2-(4-chlorophenyl)cyclohex-1-en-1-yl]methyl}piperazin-1-yl)-2-(1H-indol-5-yloxy)-N-({4-[(1-methylpiperidin-4-yl)amino]-3-nitrophenyl}sulfonyl)benzamide], the EC50 with Canine platelets came out at 17700 nM; in the test with FL5.12/Bcl-2 cells, 22 nM. Besides, the Ki is 107 nM at GST-Bcl-XL and 0.125 nM at GST-Bcl-2.

Turning to `CN1CCN(CCCNc2ccc(S(=O)(=O)NC(=O)c3ccc(N4CCN(Cc5ccccc5-c5ccc(Cl)cc5)CC4)cc3Oc3ccccc3)cc2[N+](=O)[O-])CC1` [Example 86, 4-{4-[(4′-chloro-1,1′-biphenyl-2-yl)methyl]piperazin-1-yl}-N-[(4-{[3-(4-methylpiperazin-1-yl)propyl]amino}-3-nitrophenyl)sulfonyl]-2-phenoxybenzamide], the EC50 with Canine platelets worked out at 36300 nM; in the test on FL5.12/Bcl-2 cells it was 74 nM. For the same compound, the results for the Ki on GST-Bcl-XL and on GST-Bcl-2 were 10.5 nM and 0.212 nM, respectively.

In the case of `CN1CCC(CNc2ccc(S(=O)(=O)NC(=O)c3ccc(N4CCN(Cc5ccccc5-c5ccc(Cl)cc5)CC4)cc3Oc3ccccc3)cc2[N+](=O)[O-])CC1` [Example 88, 4-{4-[(4′-chloro-1,1′-biphenyl-2-yl)methyl]piperazin-1-yl}-N-[(4-{[(1-methylpiperidin-4-yl)methyl]amino}-3-nitrophenyl)sulfonyl]-2-phenoxybenzamide], the EC50 in the test with Canine platelets worked out at 19900 nM; in the test with FL5.12/Bcl-2 cells, 32 nM. In addition, the values for the Ki at GST-Bcl-XL and at GST-Bcl-2 were 4.64 nM and 0.069 nM, respectively.

`CN1CCC(Nc2ccc(S(=O)(=O)NC(=O)c3ccc(N4CCN(Cc5ccccc5-c5ccc(Cl)cc5)CC4)cc3Oc3ccccc3)cc2[N+](=O)[O-])CC1` [Example 89, 4-{4-[(4′-chloro-1,1′-biphenyl-2-yl)methyl]piperazin-1-yl}-N-({4-[(1-methylpiperidin-4-yl)amino]-3-nitrophenyl}sulfonyl)-2-phenoxybenzamide]: the EC50 in the test with Canine platelets came out at 32000 nM; in the test on FL5.12/Bcl-2 cells, 65 nM. The results for the Ki at GST-Bcl-XL and on GST-Bcl-2 were 7.45 nM and 0.129 nM, respectively.

On to `CN(C)CCCOc1ccc(S(=O)(=O)NC(=O)c2ccc(N3CCN(Cc4ccccc4-c4ccc(Cl)cc4)CC3)cc2Oc2ccccc2)cc1[N+](=O)[O-]` [Example 94, 4-{4-[(4′-chloro-1,1′-biphenyl-2-yl)methyl]piperazin-1-yl}-N-({4-[3-(dimethylamino)propoxy]-3-nitrophenyl}sulfonyl)-2-phenoxybenzamide], for which the EC50 in the test on Canine platelets stood at 23800 nM; with FL5.12/Bcl-2 cells, 40 nM. In addition, the values for the Ki at GST-Bcl-XL and on GST-Bcl-2 were 2.32 nM and 0.07 nM, respectively.

Values taken from US9073855B2, “BCL-2 selective apoptosis-inducing agents for the treatment of cancer and immune diseases” (AbbVie Inc., priority 2008, dated 2015).
